Results reported in PMC9352230 (ACS Omega, 2022).

Legend:
[1] = molecular target: T1, ENPP1 (Homo sapiens, UniProt P22413); test: ENPP1 enzyme inhibition assay; format: biochemical; conditions: for inhibition at 100 µM: read-out: ENPP1 % inhibition ± SD
T1 sequence (P22413 1-925): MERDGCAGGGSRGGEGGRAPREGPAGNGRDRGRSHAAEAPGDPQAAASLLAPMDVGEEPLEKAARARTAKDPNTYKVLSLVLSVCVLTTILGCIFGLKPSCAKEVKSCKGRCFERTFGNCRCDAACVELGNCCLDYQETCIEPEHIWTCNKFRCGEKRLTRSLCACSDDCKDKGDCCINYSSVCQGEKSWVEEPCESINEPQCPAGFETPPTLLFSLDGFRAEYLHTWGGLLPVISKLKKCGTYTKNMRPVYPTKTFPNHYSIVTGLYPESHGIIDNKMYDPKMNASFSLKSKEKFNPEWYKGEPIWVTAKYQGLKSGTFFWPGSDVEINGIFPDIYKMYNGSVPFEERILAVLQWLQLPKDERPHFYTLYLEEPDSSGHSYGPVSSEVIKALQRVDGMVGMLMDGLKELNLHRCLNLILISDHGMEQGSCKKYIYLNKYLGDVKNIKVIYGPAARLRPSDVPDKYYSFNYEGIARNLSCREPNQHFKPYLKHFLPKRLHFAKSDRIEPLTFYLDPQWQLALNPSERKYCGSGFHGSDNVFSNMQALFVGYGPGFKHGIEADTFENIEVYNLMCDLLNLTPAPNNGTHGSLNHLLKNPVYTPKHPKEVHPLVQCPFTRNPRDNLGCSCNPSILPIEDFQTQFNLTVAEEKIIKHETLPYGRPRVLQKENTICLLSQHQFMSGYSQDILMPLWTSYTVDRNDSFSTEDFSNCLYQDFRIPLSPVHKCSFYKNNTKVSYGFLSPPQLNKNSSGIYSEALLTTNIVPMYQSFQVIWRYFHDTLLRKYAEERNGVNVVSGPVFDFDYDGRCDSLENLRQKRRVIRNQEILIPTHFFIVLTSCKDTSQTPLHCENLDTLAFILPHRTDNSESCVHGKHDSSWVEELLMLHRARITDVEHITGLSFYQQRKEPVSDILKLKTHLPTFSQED

[2] = molecular target: T2, ENPP3 (Homo sapiens, UniProt O14638); test: ENPP3 enzyme inhibition assay; format: biochemical; conditions: for inhibition at 100 µM: read-out: ENPP3 % inhibition ± SD
T2 sequence (O14638 1-875): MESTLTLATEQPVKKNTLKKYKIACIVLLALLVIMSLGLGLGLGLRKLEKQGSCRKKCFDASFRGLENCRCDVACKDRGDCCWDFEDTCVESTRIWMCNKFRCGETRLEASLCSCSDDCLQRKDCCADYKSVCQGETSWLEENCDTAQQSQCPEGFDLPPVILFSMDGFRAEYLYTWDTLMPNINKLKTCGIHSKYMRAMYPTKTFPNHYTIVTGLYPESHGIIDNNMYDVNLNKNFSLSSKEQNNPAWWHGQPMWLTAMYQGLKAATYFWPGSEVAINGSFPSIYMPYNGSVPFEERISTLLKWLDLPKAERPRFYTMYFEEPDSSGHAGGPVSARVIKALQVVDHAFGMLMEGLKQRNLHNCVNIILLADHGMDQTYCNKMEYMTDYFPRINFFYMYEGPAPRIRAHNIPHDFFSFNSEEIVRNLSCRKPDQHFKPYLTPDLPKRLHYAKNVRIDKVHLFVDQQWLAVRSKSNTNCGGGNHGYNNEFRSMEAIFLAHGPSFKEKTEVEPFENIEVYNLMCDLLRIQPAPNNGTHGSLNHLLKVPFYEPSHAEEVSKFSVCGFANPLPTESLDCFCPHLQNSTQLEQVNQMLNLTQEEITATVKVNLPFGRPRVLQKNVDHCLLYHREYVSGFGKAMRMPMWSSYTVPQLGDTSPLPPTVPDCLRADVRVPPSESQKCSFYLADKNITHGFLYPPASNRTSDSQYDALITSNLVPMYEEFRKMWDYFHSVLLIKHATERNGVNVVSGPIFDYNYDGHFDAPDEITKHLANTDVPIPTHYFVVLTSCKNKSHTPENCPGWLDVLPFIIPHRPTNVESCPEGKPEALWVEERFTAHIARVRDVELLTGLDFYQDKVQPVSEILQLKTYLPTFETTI

[3] = test system: MCF7 (human breast cancer cell line); test: MTT cytotoxicity assay, MCF7; format: cell-based; conditions: MCF7, 24 h, read-out: MCF7 (% inhibition ±SD)
[4] = test system: HEK293 (human embryonic kidney cell line); test: MTT cytotoxicity assay, HEK293; format: cell-based; conditions: Homo sapiens, HEK293, 24 h, read-out: HEK293 (% inhibition ±SD)

Compound | IC50 [1] [µM] | IC50 [2] [µM] | inhibition at 100 µM [3] [%] | inhibition at 100 µM [4] [%] | inhibition at 100 µM [2] [%] | inhibition at 100 µM [1] [%]
Cc1ccc(C(=O)Nc2ccc(OS(=O)(=O)c3ccc(OC(F)(F)F)cc3)cc2)cc1 [4g, 4-(4-Methylbenzamido)phenyl 4-(Trifluoromethoxy)benzenesulfonate] | 0.45 ± 0.07 | 0.19 ± 0.02 | 11.7 ± 0.84 | 3.2 ± 0.11 |  | 
CC1(C(=O)Nc2ccc(OS(=O)(=O)c3ccc(F)cc3)cc2)c2ccccc2-c2ccccc21 [7c, 4-(9-Methyl-9H-fluorene-9-carboxamido)phenyl 4-Fluorobenzenesulfonate] | 0.5 ± 0.03 | 6.69 ± 1.89 | 12.4 ± 1.22 | 9.2 ± 0.42 |  | 
CC1(C(=O)Nc2ccc(OS(=O)(=O)C(F)(F)F)cc2)c2ccccc2-c2ccccc21 [7b, 4-(9-Methyl-9H-fluorene-9-carboxamido)phenyl Trifluoromethanesulfonate] | 0.9 ± 0.16 | 4.16 ± 0.22 | 14.1 ± 0.63 | 24.5 ± 1.16 |  | 
O=C(Nc1ccc(OS(=O)(=O)c2ccc(F)cc2)cc1)c1ccccc1 [4s, 4-Benzamidophenyl 4-Fluorobenzenesulfonate] | 5.76 ± 0.57 | 2.95 ± 0.25 | 2.1 ± 0.08 | 20.6 ± 1.14 |  | 
COc1ccc(S(=O)(=O)Oc2ccc(NC(=O)c3ccc(C)cc3)cc2)cc1 [4d, 4-(4-Methylbenzamido)phenyl 4-Methoxybenzenesulfonate] | 0.18 ± 0.01 |  | 31.5 ± 2.43 | 13.1 ± 0.73 | 45.7 ± 2.35 | 
Cc1ccc(C(=O)Nc2ccc(OS(=O)(=O)c3ccc(F)cc3)cc2)cc1 [4k, 4-(4-Methylbenzamido)phenyl 4-Fluorobenzenesulfonate] | 7.61 ± 0.02 | 0.37 ± 0.08 | 11.2 ± 0.52 | 2.1 ± 1.22 |  | 
O=C(Nc1ccc(OS(=O)(=O)c2ccc(OC(F)(F)F)cc2)cc1)c1ccccc1 [4t, 4-Benzamidophenyl 4-(trifluoromethoxy)benzenesulfonate] |  | 0.15 ± 0.04 | 29.6 ± 1.22 | 8.6 ± 0.14 |  | 41.4 ± 3.24
O=C(Nc1ccc(OS(=O)(=O)c2ccc(-c3ccccc3)cc2)cc1)c1ccccc1 [4p, 4-Benzamidophenyl [1,1′-Biphenyl]-4-sulfonate] | 1.51 ± 0.02 |  | 8.4 ± 0.75 | 4.3 ± 0.15 | 33.5 ± 1.92 | 
CCCc1ccc(S(=O)(=O)Oc2ccc(NC(=O)c3ccccc3)cc2)cc1 [4o, 4-Benzamidophenyl 4-Propylbenzenesulfonate] | 1.71 ± 0.04 | 2.12 ± 0.08 | 63.2 ± 2.51 | 12.6 ± 0.74 |  | 
COc1cccc2c1C(=O)c1c(O)c3c(c(O)c1C2=O)C[C@@](O)(C(=O)CO)C[C@@H]3O[C@H]1C[C@H](N)[C@H](O)[C@H](C)O1 [doxorubicin, reference compound] |  |  | 88.8 ± 2.74 |  |  | 
Cc1ccc(C(=O)Nc2ccc(OS(=O)(=O)c3ccccc3F)cc2)cc1 [4l, 4-(4-Methylbenzamido)phenyl 2-Fluorobenzenesulfonate] | 0.15 ± 0.01 | 3.48 ± 0.34 | 0.5 ± 0.03 | 17.4 ± 0.83 |  | 
Cc1ccc(C(=O)Nc2ccc(OS(=O)(=O)c3ccc(C)cc3)cc2)cc1 [4a, 4-(4-Methylbenzamido)phenyl 4-Methylbenzenesulfonate] |  |  | 1.1 ± 0.12 | 5.3 ± 0.81 | 17 ± 3.24 | 26.2 ± 2.11
CCCc1ccc(S(=O)(=O)Oc2ccc(NC(=O)c3ccc(C)cc3)cc2)cc1 [4f, 4-(4-Methylbenzamido)phenyl 4-Propylbenzenesulfonate] |  |  | 25.7 ± 0.92 | 4.2 ± 0.12 | 8.4 ± 3.11 | 
CC1(C(=O)Nc2ccc(OS(C)(=O)=O)cc2)c2ccccc2-c2ccccc21 [7d, 4-(9-Methyl-9H-fluorene-9-carboxamido)phenyl Methanesulfonate] |  | 0.16 ± 0.01 | 0.2 ± 0.06 | 5.5 ± 0.36 |  | 9.2 ± 4.13
Cc1ccc(C(=O)Nc2ccc(OS(=O)(=O)c3ccc(-c4ccccc4)cc3)cc2)cc1 [4h, 4-(4-Methylbenzamido)phenyl [1,1′-Biphenyl]-4-sulfonate] | 1.73 ± 0.03 |  | 9.1 ± 0.71 | 4.8 ± 0.24 | 27.1 ± 4.54 | 
Cc1ccc(C(=O)Nc2ccc(OS(=O)(=O)c3ccc(Cl)cc3)cc2)cc1 [4e, 4-(4-Methylbenzamido)phenyl 4-Chlorobenzenesulfonate] |  | 0.82 ± 0.12 | 24.2 ± 1.73 | 8.3 ± 0.35 |  | 44.8 ± 1.52
O=C(Nc1ccc(OS(=O)(=O)c2ccc(I)cc2)cc1)c1ccccc1 [4r, 4-Benzamidophenyl 4-Iodobenzenesulfonate] | 2.01 ± 0.34 | 0.53 ± 0.19 | 10.2 ± 0.86 | 11.3 ± 0.71 |  | 
O=C(Nc1ccc(OS(=O)(=O)Cc2ccccc2)cc1)c1ccccc1 [4n, 4-Benzamidophenyl Phenylmethanesulfonate] | 3.96 ± 0.12 | 4.12 ± 0.05 | 7.3 ± 0.03 | 5.8 ± 0.23 |  | 
Cc1ccc(C(=O)Nc2ccc(OS(=O)(=O)Cc3ccccc3)cc2)cc1 [4i, 4-(4-Methylbenzamido)phenyl Phenylmethanesulfonate] | 0.13 ± 0.01 |  | 5.7 ± 0.06 | 11.2 ± 0.92 | 46.7 ± 1.54 | 
CC1(C(=O)Nc2ccc(OS(=O)(=O)c3ccccc3F)cc2)c2ccccc2-c2ccccc21 [7a, 4-(9-Methyl-9H-fluorene-9-carboxamido)phenyl 2-Fluorobenzenesulfonate] | 0.81 ± 0.05 |  | 12.7 ± 0.62 | 14.6 ± 1.12 | 28.2 ± 3.22 | 
O=C(Nc1ccc(OS(=O)(=O)c2cccc3cccnc23)cc1)c1ccccc1 [4q, 4-Benzamidophenyl Quinoline-8-sulfonate] | 0.37 ± 0.03 |  | 11.2 ± 1.04 | 4.6 ± 0.32 | 19.5 ± 3.53 | 
Cc1ccc(C(=O)Nc2ccc(OS(=O)(=O)c3ccccc3)cc2)cc1 [4b, 4-(4-methylbenzamido)phenyl Benzenesulfonate] |  | 29.8 ± 2.13 | 7.4 ± 0.04 | 6.4 ± 0.22 |  | 45.2 ± 1.53
COc1ccc(S(=O)(=O)Oc2ccc(NC(=O)c3ccccc3)cc2)cc1 [4m, 4-Benzamidophenyl 4-Methoxybenzenesulfonate] | 0.82 ± 0.05 |  | 4.1 ± 0.01 | 2.3 ± 1.12 | 22.6 ± 2.12 | 
CC1(C(=O)Nc2ccc(OS(=O)(=O)c3ccccc3)cc2)c2ccccc2-c2ccccc21 [7f, 4-(9-Methyl-9H-fluorene-9-carboxamido)phenyl Benzenesulfonate] | 8.45 ± 0.25 |  | 5.6 ± 1.11 | 6.2 ± 1.17 | 42.1 ± 2.44 | 
Cc1ccc(C(=O)Nc2ccc(OS(=O)(=O)c3ccc(I)cc3)cc2)cc1 [4c, 4-(4-methylbenzamido)phenyl 4-Iodobenzenesulfonate] | 14.4 ± 0.54 | 4.23 ± 0.38 | 33.2 ± 1.32 | 15.2 ± 0.83 |  | 
